Data from PubChem BioAssay (NCI).
“And” between values parts separate entries of the source, which are not always exact repeats. Equal values may be shown once.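 All cell lines were grown in 96-well plates and treated with compound for 48 hours. GI50 is the concentration that inhibits growth by half. The concentration for full growth arrest is given as TGI.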

Columns and labels:
Assay in all cases: NCI anticancer screen, dose series, 48 h
[1] = test system: DMS 273 small cell lung
[2] = test system: LXFL 529 NSCLC
[3] = test system: M19-MEL melanoma
[4] = test system: MCF7 breast
[5] = test system: MDA-MB-231 breast
[6] = test system: MDA-MB-435
[7] = test system: NCI/ADR-RES ovarian
[8] = test system: DMS 114 small cell lung
[9] = test system: XF 498 CNS

SMILES	TGI [1] [µM]	TGI [2] [µM]	TGI [3] [µM]	TGI [4]	TGI [5]	TGI [6]	TGI [7]	GI50 [4]	GI50 [5]	GI50 [6]	GI50 [7]	TGI [8] [µM]	TGI [9] [µM]	GI50 [1] [µM]
Clc1ccc(C(n2cc(Br)cn2)n2cc(Br)cn2)cc1	36.8	29.5	32.6											
COc1cccc(/C=N/C(/N=C/c2cccc(OC)c2O)c2cccc(OC)c2O)c1O				62.8 µM	> 100 µM	> 100 µM	85.2 µM							
CC(C)=CC1=C2C3=C(C(=O)C4(O)Oc5c(C)c6c7c(c5OC24C)[C@@H](C)CC[C@@H]7[C@@H](C)C[C@H]6C=C(C)C)C(C)CCC3C(C)C1 (stereo partly specified)				> 100 µM	> 100 µM	> 100 µM	> 100 µM	> 100 µM	> 100 µM	> 100 µM	> 100 µM			
CC(=O)O[C@H]1C(=O)[C@@]2(C)C(C(OC(=O)c3ccccc3)C3[C@@H](O)C(OC(=O)[C@@H](O)[C@H](NC(=O)c4ccccc4)c4ccc(C(F)(F)F)cc4)C(C)=C1C3(C)C)[C@]1(OC(C)=O)CO[C@@H]1C[C@@H]2O (stereo partly specified)	> 25	> 25	> 25									> 25		
NC(N)=NS(=O)(=O)c1ccc(NCCc2c3ccccc3nc3ccccc23)cc1	> 100	> 100	> 100									> 100		
O=C(O)C1CC(O)CN1 (stereo unspecified)				> 100 µM	> 100 µM	> 100 µM	> 100 µM							
O=C1C[C@@H]2/C(=C(O)\C=C\c3ccccc3)C(=O)C=C[C@@H]2O1				13.5 µM	4.21 µM	3.49 µM	3.4 µM	0.83 µM	2.13 µM	1.61 µM	0.69 µM			
O=C(/C=C/c1ccc(C(F)(F)F)cc1)c1ccc(Nc2nc(NCCO)nc(Nc3ccc(Cl)cc3)n2)cc1				5.56 µM	16.1 µM	12.8 µM	26 µM	1.49 µM	4.21 µM	3.46 µM	5.58 µM			
Cc1cccc(C)c1NC(=O)C(=O)Nn1c(NN)nc2ccccc2c1=O	> 100	> 100	> 100									> 100		
COc1cc(C2CC(c3ccc(Nc4ccnc5cc(Cl)ccc45)cc3)=NN2c2ccc(Cl)cc2)cc(OC)c1OC (stereo unspecified)				> 100 µM	27.1 µM	2.05 µM	> 100 µM	0.86 µM	1.93 µM	0.329 µM	1.7 µM			
COC(=O)/C=C/c1cc2c(cc1-c1c(C(=O)O)cc(OC)c(OC)c1OC)OCO2				> 10 µM	> 10 µM	> 10 µM	> 10 µM							
COc1cc(Nc2ncc(F)c(Nc3ccc4c(n3)N(COP(=O)(O)O)C(=O)C(C)(C)O4)n2)cc(OC)c1OC				22.6 µM and > 10 µM	5.07 µM and 7.69 µM	22 µM and > 10 µM	17.2 µM and > 10 µM	3.02 µM and 3.32 µM	1.67 µM and 1.35 µM	2.78 µM and 2.67 µM	2.99 µM and 3.01 µM			
COC(=O)c1c2cccccc-2c(Cc2c3cccccc-3c(C(=O)OC)c2O)c1O	> 100		> 100									> 100	> 100	
CCNC(=O)O[C@H]1CN[C@H](C#Cc2cc3ncnc(Nc4ccc(OCc5cccc(F)c5)c(Cl)c4)c3s2)C1				> 25 µM	> 16 µM	> 25 µM	> 25 µM	8.95 µM	4.35 µM	9.27 µM	6.19 µM			
C[N+]1=C(/C=C\C=C\c2ccccc2)C(C)(C)c2ccccc21				11 µM	7.52 µM	5.17 µM	33.9 µM	2.48 µM	2.36 µM	2.01 µM	9.45 µM			
CN(Cc1cc(C(C)(C)C)cc(Br)c1O)Cc1cc(C(C)(C)C)cc(Br)c1O				10.7 µM	6.91 µM	15.9 µM	11.1 µM							
C=C1CC2(OC1=O)C(=O)Nc1ccccc12 (stereo unspecified)				6.17 µM	17 µM	14.9 µM	11.2 µM	2.14 µM	4.62 µM	3.57 µM	2.86 µM			
O=C1C(=Cc2c(O)cc(O)cc2O)C(=O)c2ccccc21	> 100	> 57.5	> 53									> 100		
COc1cc(-c2nc(SCCC(C)C)nc(Nc3ccc(S(N)(=O)=O)cc3)c2C#N)cc(OC)c1OC				> 100 µM	7.8 µM	> 100 µM	> 100 µM	3.19 µM	2.19 µM	3.15 µM	3.03 µM			
Cc1cc2c([nH]c3ccccc32)c2c1OC(C)(C)C1C3CC(C)(C)Oc4c(C)cc5c6ccccc6n(c5c43)C21 (stereo unspecified)	> 100	> 100	> 100									> 100		
Cc1ncc(C(=O)Nc2ccc(CN3CCN(C)CC3)c(C(F)(F)F)c2)cc1C#Cc1cnc(N)cc1C#N				4.48 µM	1.92 µM	1.61 µM	5.24 µM	1.69 µM	0.222 µM	0.084 µM	2.12 µM			
C#CCOc1cccc(Nc2ncnc3cc(NC(=O)CCl)ccc23)c1				7.99 µM	19.9 µM	16.4 µM	42.9 µM	1.95 µM	5.28 µM	3.1 µM	4.13 µM			
O=c1cccccc1[O-].O=c1cccccc1[O-].O=c1cccccc1[O-].[La+3]	> 100													5.98
O=Cc1c(O)c(C(=O)Nc2ccc3[nH]c(=O)[nH]c3c2)cc2ccccc12	> 100	> 100	> 100									> 100		
Nc1nc2c3nc(Nc4ccccc4)sc3nc(=O)n2c2sc(Nc3ccccc3)nc12	> 100	> 100	> 100										> 100	
CC1OC(n2cc(F)c(=O)[nH]c2=O)C=CC1=O (stereo unspecified)	36.1	31.2	36.2									32.3		
Cc1cnc(C(=O)Nc2nc3ccc(S(=O)(=O)Nc4ccc(C5(C(F)(F)F)CC5)cc4)cc3[nH]2)cn1				5.68 µM	15.6 µM	0.238 µM	1.69 µM	0.287 µM	1.5 µM	0.0571 µM	0.26 µM			
CN(C)c1ccc(/C=C/c2cc[n+](C)c(/C=C/c3ccc(N(C)C)cc3)c2)cc1				1.13 µM	1.28 µM	1.32 µM	18.7 µM	0.272 µM	0.322 µM	0.346 µM	3.81 µM			

SMILES	TGI [1] [µM]	TGI [2] [µM]	TGI [3] [µM]	TGI [4]	TGI [5]	TGI [6]	TGI [7]	GI50 [4]	GI50 [5]	GI50 [6]	GI50 [7]	TGI [8] [µM]	TGI [9] [µM]	GI50 [1] [µM]
COC(=O)CC[C@H](Cc1ccccc1)NC(=O)c1csc([C@@H](C[C@H](C(C)C)N(C)C(=O)[C@@H](NC(=O)[C@H]2CCCCN2C)C(C)C)OC(C)=O)n1				> 25 µM	> 25 µM		> 25 µM	< 0.0025 µM	0.0057 µM		0.0714 µM			
CCCCCCCc1cc2c3c(nc4ccccc42)C(=O)c2cccnc2-c3n1				5.92 µM	20 µM	4.33 µM	12.6 µM	1.54 µM	6.71 µM	1.96 µM	4.33 µM			
Cc1ccc(O)c(NC(=O)c2ccc(CNc3ccnc(C(F)(F)F)c3)cc2)c1				38.9 µM	47.2 µM	22.1 µM	37.8 µM	4.06 µM	3.36 µM	4.26 µM	4.68 µM			
CCOC(=O)c1c2c(n3ccccc13)C(=O)c1ncccc1C2=O				1.77 µM	> 100 µM	16.4 µM	3.09 µM	0.0284 µM	2.76 µM	0.194 µM	0.0348 µM			
COC(=O)[C@@H](C)C[C@H](Cc1ccccc1)NC(=O)c1csc([C@@H](C[C@H](C(C)C)N(C)C(=O)[C@@H](NC(=O)[C@H]2CCCCN2C)C2CC2)OC(C)=O)n1				> 16.5 µM	> 16.5 µM	< 0.00165 µM	> 16.5 µM		0.00143 µM and 0.00165 µM	< 0.00165 µM	0.0488 µM and 0.0603 µM			
CCOc1ccc2nc(NC(=O)C(=O)C(c3cnc4ccccc4n3)[N+](=O)[O-])sc2c1 (stereo unspecified)				> 100 µM	> 100 µM		> 100 µM							
CC(=O)OCc1cc2ccccc2nc1C(Br)(Br)Br				30.7 µM	44.9 µM	27 µM	44 µM							
Cc1ccc(Cl)cc1NC(=O)c1sc2nc3c(cc2c1N)C(=O)CCC3				> 100 µM		5.04 µM	> 100 µM	4.67 µM		1.1 µM	5.28 µM			
O=c1c(-c2ccccc2)coc2cc(OC/C(=N/O)c3ccccc3)ccc12				47.1 µM	43.7 µM	> 100 µM	60 µM	23.3 µM	18.2 µM	20.5 µM	17.8 µM			
O=C1c2ccccc2S(=O)(=O)c2cc(-c3nn[nH]n3)ccc21				> 100 µM	> 100 µM	> 100 µM	> 100 µM							
CCN1CCC(O)(c2ccc(Cl)cc2)C(C(=O)c2ccc(Cl)cc2)C1 (stereo unspecified)	> 100	> 100	> 100										> 100	
O=C1C(=O)c2cccnc2-c2ncccc21				0.554 µM	0.503 µM	1.02 µM	0.281 µM	0.232 µM	0.14 µM	0.263 µM	0.0898 µM			
O=c1c(O)c(-c2cc(O)c(O)c(O)c2)oc2cc(O)cc(O)c12				37.4 µM	35.8 µM	34.8 µM	53.2 µM							
C=C1C(=O)O[C@H]2[C@H]1CC/C(Cn1cc(-c3ccccc3C(F)(F)F)nn1)=C\CC[C@@]1(C)O[C@@H]21					3.75 µM	7.11 µM	15.1 µM		1.64 µM	2.18 µM	2.99 µM			
OCC#Cc1ccccc1C#CCCCCCC#Cc1ccccc1C#CCO				40.2 µM	32.6 µM	36.1 µM	36.7 µM	18.5 µM	17.2 µM	18.8 µM	18.8 µM			
O=C1c2ccccc2-c2c1c1ccccc1c(=O)n2CCCn1ccnc1				> 100 µM	5.8 µM	10.7 µM	6.09 µM	0.902 µM	2.08 µM	2.74 µM	1.81 µM			
CC12CCC(Br)C(C)(C)C1CC=C1C(=O)OCC1O2 (stereo unspecified)				22.7 µM	31.5 µM	35.6 µM	56.9 µM							
COc1cc2c(cc1OC)/C(=C\c1ccccc1N)C(=O)OC2	25.5	17.7	39.2									34.7		
Cc1cc2c(C)nn(Cc3ccc(Cl)cc3)c2c(C#N)c1C	> 100	> 100	> 100										> 100	
COc1ccc2c(c1)C(=O)c1c-2n(CCCI)c(=O)c2cc([N+](=O)[O-])ccc12					50 µM and > 100 µM	5.43 µM and 16.5 µM		0.0105 µM and 0.0343 µM	12.9 µM and 22.9 µM	0.449 µM and 1.49 µM	0.14 µM and 0.122 µM			
C=CC(Cl)(CBr)CCC(Br)C(C)(C)Cl (stereo unspecified)				20.1 µM	27.6 µM	30.3 µM	49.8 µM							
N#C/C(=C\c1ccc(Br)cc1)n1nnc2ccc(F)cc21				2.85 µM	4.8 µM	0.403 µM	3.42 µM	0.372 µM	1.87 µM	0.19 µM	0.34 µM			
C=C(c1ccccc1)[C@@]1(O)CC[C@@H]1N(CC#N)Cc1ccccc1	39.7	29.5	57.1		27.5 µM	47.5 µM	43.8 µM					34.3		
O=C1C(Cl)=C(NCc2ccco2)C(=O)c2ccccc21				> 27.9 µM	> 81.5 µM	3.89 µM	> 100 µM	2.39 µM	18.4 µM	2.06 µM	31.2 µM			
Cn1cc(-c2ccc(-c3ccc(C4=NC5(CC5)C(=O)N4C[C@@H]4CCN(C(=O)C5CC5)C4)cc3)cc2)cn1				> 100 µM	37.3 µM	38.9 µM	> 100 µM	1.12 µM	11.2 µM	10.4 µM	10.4 µM			
Cc1cn(-c2cc(NC(=O)c3ccc(C)c(Nc4nccc(-c5cccnc5)n4)c3)cc(C(F)(F)F)c2)cn1				7.39 µM and 7.55 µM	> 10 µM and 14.3 µM	4.65 µM and 4.76 µM	> 10 µM and 16.1 µM	2.49 µM and 2.35 µM	3.68 µM and 1.81 µM	1.79 µM and 1.57 µM	5.72 µM and 2.5 µM			
CSc1nc(SC)c2c(CO)c(Br)n(Cc3ccccc3)c2n1				> 100 µM	36.5 µM	> 100 µM	> 100 µM							
